Results: US11547681B2, “N-acylethanolamide derivatives and uses thereof” (ELIEM THERAPEUTICS, INC., priority 2016, dated 2023)

Test: in vitro
Conditions: for Concentration (μM) of analyte PEA, 0 min / Concentration (μM) of analyte PEA, 10 min / Concentration (μM) of analyte PEA, 20 min / Concentration (μM) of analyte PEA, 30 min / Concentration (μM) of analyte PEA, 60 min / % Remaining of Initial (n = 1), 0 min / % Remaining of Initial (n = 1), 10 min / % Remaining of Initial (n = 1), 20 min / % Remaining of Initial (n = 1), 30 min / % Remaining of Initial (n = 1), 60 min: 1 μM; for % Remaining of Initial (n = 1), 0 min: s9, 0 h; for % Remaining of Initial (n = 1), 10 min: s9, 10 min; for % Remaining of Initial (n = 1), 20 min: s9, 20 min; for % Remaining of Initial (n = 1), 30 min: s9, 0.5 h; for % Remaining of Initial (n = 1), 60 min: s9, 1 h; for half-life at 1 μM: s9, Half-life (min)
Summary of the method: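 Test article (1 µM final) was pre-equilibrated at 37 °C in S9 reaction mixture, then the cofactor cocktail was added to start the reaction. Samples taken at 0, 10, 20, 30 and 60 min were quenched in cold acidified acetonitrile. LC-MS/MS tracked prodrug and released PEA, and half-lives came from single-phase exponential decay fits.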

In the case of `CCCCC/C=C\C/C=C\CCCCCCCC(=O)OCCNC(=O)CCCCCCCCCCCCCCC` [Compound I-6], the “Concentration (μM) of analyte PEA, 0 min” value (both, human) was 0.014 µM, the “Concentration (μM) of analyte PEA, 10 min” value (“Concentration (μM) … 10 min” below) (both, human) was 0.037 µM and the “Concentration (μM) of analyte PEA, 20 min” value (“Concentration (μM) … 20 min” below) (both, human) was 0.022 µM. The “Concentration (μM) of analyte PEA, 30 min” value (“Concentration (μM) … 30 min” below) (both, human) was 0.022 µM, the “Concentration (μM) of analyte PEA, 60 min” value (“Concentration (μM) … 60 min” below) (both, human) was 0.016 µM and the “% Remaining of Initial (n = 1), 0 min” value (both, human) was 100%. For the same compound, the “% Remaining of Initial (n = 1), 10 min” value (both, human) was 80%, the “% Remaining of Initial (n = 1), 20 min” value (both, human) was 102% and the “% Remaining of Initial (n = 1), 30 min” value (both, human) was 95%. For the same compound, the “% Remaining of Initial (n = 1), 60 min” value (both, human) was 77%, the half-life at 1 μM (both, human) was greater than 1 h and the “Concentration (μM) of analyte PEA, 0 min” value (male, Beagle, dog) was 0.016 µM. For the same compound, the “Concentration (μM) … 10 min” value (male, Beagle, dog) was 0.044 µM, the “Concentration (μM) … 20 min” value (male, Beagle, dog) was 0.041 µM and the “Concentration (μM) … 30 min” value (male, Beagle, dog) was 0.049 µM. For the same compound, the “Concentration (μM) … 60 min” value (male, Beagle, dog) was 0.037 µM, the “% Remaining of Initial (n = 1), 0 min” value (male, Beagle, dog) was 100% and the “% Remaining of Initial (n = 1), 10 min” value (male, Beagle, dog) was 101%. For the same compound, the “% Remaining of Initial (n = 1), 20 min” value (male, Beagle, dog) was 106%, the “% Remaining of Initial (n = 1), 30 min” value (male, Beagle, dog) was 102% and the “% Remaining of Initial (n = 1), 60 min” value (male, Beagle, dog) was 110%. For the same compound, the half-life at 1 μM (male, Beagle, dog) was greater than 1 h, the “Concentration (μM) of analyte PEA, 0 min” value (male, CD-1, mouse) was 0.030 µM and the “Concentration (μM) … 10 min” value (male, CD-1, mouse) was 0.041 µM. The “Concentration (μM) … 20 min” value (male, CD-1, mouse) was 0.033 µM, the “Concentration (μM) … 30 min” value (male, CD-1, mouse) was 0.031 µM and the “Concentration (μM) … 60 min” value (male, CD-1, mouse) was 0.015 µM. The “% Remaining of Initial (n = 1), 0 min” value (male, CD-1, mouse) was 100%, the “% Remaining of Initial (n = 1), 10 min” value (male, CD-1, mouse) was 87% and the “% Remaining of Initial (n = 1), 20 min” value (male, CD-1, mouse) was 87%. The “% Remaining of Initial (n = 1), 30 min” value (male, CD-1, mouse) was 99%, the “% Remaining of Initial (n = 1), 60 min” value (male, CD-1, mouse) was 75% and the half-life at 1 μM (male, CD-1, mouse) was greater than 1 h. For the same compound, the “Concentration (μM) of analyte PEA, 0 min” value (male, Sprague-Dawley, rat) was 0.020 µM, the “Concentration (μM) … 10 min” value (male, Sprague-Dawley, rat) was 0.035 µM and the “Concentration (μM) … 20 min” value (male, Sprague-Dawley, rat) was 0.021 µM. For the same compound, the “Concentration (μM) … 30 min” value (male, Sprague-Dawley, rat) was 0.021 µM, the “Concentration (μM) … 60 min” value (male, Sprague-Dawley, rat) was 0.013 µM and the “% Remaining of Initial (n = 1), 0 min” value (male, Sprague-Dawley, rat) was 100%. The “% Remaining of Initial (n = 1), 10 min” value (male, Sprague-Dawley, rat) was 64%, the “% Remaining of Initial (n = 1), 20 min” value (male, Sprague-Dawley, rat) was 82% and the “% Remaining of Initial (n = 1), 30 min” value (male, Sprague-Dawley, rat) was 93%. The “% Remaining of Initial (n = 1), 60 min” value (male, Sprague-Dawley, rat) was 89% and the half-life at 1 μM (male, Sprague-Dawley, rat) was greater than 1 h.
In the case of `CC/C=C\C/C=C\C/C=C\C/C=C\C/C=C\CCCC(=O)OCCNC(=O)CCCCCCCCCCCCCCC` [Compound I-5], the “Concentration (μM) of analyte PEA, 0 min” value (both, human) was 0.024 µM, the “Concentration (μM) … 10 min” value (both, human) was 0.036 µM and the “Concentration (μM) … 20 min” value (both, human) was 0.036 µM. For the same compound, the “Concentration (μM) … 30 min” value (both, human) was 0.025 µM, the “Concentration (μM) … 60 min” value (both, human) was 0.018 µM and the “% Remaining of Initial (n = 1), 0 min” value (both, human) was 100%. For the same compound, the “% Remaining of Initial (n = 1), 10 min” value (both, human) was 80%, the “% Remaining of Initial (n = 1), 20 min” value (both, human) was 81% and the “% Remaining of Initial (n = 1), 30 min” value (both, human) was 70%. The “% Remaining of Initial (n = 1), 60 min” value (both, human) was 72%, the half-life at 1 μM (both, human) was greater than 1 h and the “Concentration (μM) of analyte PEA, 0 min” value (male, Beagle, dog) was 0.024 µM. For the same compound, the “Concentration (μM) … 10 min” value (male, Beagle, dog) was 0.044 µM, the “Concentration (μM) … 20 min” value (male, Beagle, dog) was 0.036 µM and the “Concentration (μM) … 30 min” value (male, Beagle, dog) was 0.041 µM. For the same compound, the “Concentration (μM) … 60 min” value (male, Beagle, dog) was 0.038 µM, the “% Remaining of Initial (n = 1), 0 min” value (male, Beagle, dog) was 100% and the “% Remaining of Initial (n = 1), 10 min” value (male, Beagle, dog) was 72%. The “% Remaining of Initial (n = 1), 20 min” value (male, Beagle, dog) was 79%, the “% Remaining of Initial (n = 1), 30 min” value (male, Beagle, dog) was 74% and the “% Remaining of Initial (n = 1), 60 min” value (male, Beagle, dog) was 85%. The half-life at 1 μM (male, Beagle, dog) was greater than 1 h, the “Concentration (μM) of analyte PEA, 0 min” value (male, CD-1, mouse) was 0.046 µM and the “Concentration (μM) … 10 min” value (male, CD-1, mouse) was 0.061 µM. The “Concentration (μM) … 20 min” value (male, CD-1, mouse) was 0.043 µM, the “Concentration (μM) … 30 min” value (male, CD-1, mouse) was 0.029 µM and the “Concentration (μM) … 60 min” value (male, CD-1, mouse) was 0.018 µM. For the same compound, the “% Remaining of Initial (n = 1), 0 min” value (male, CD-1, mouse) was 100%, the “% Remaining of Initial (n = 1), 10 min” value (male, CD-1, mouse) was 66% and the “% Remaining of Initial (n = 1), 20 min” value (male, CD-1, mouse) was 50%. For the same compound, the “% Remaining of Initial (n = 1), 30 min” value (male, CD-1, mouse) was 59%, the “% Remaining of Initial (n = 1), 60 min” value (male, CD-1, mouse) was 50% and the “Concentration (μM) of analyte PEA, 0 min” value (male, Sprague-Dawley, rat) was 0.020 µM. The “Concentration (μM) … 10 min” value (male, Sprague-Dawley, rat) was 0.025 µM, the “Concentration (μM) … 20 min” value (male, Sprague-Dawley, rat) was 0.037 µM and the “Concentration (μM) … 30 min” value (male, Sprague-Dawley, rat) was 0.026 µM. The “Concentration (μM) … 60 min” value (male, Sprague-Dawley, rat) was 0.013 µM, the “% Remaining of Initial (n = 1), 0 min” value (male, Sprague-Dawley, rat) was 100% and the “% Remaining of Initial (n = 1), 10 min” value (male, Sprague-Dawley, rat) was 98%. For the same compound, the “% Remaining of Initial (n = 1), 20 min” value (male, Sprague-Dawley, rat) was 82%, the “% Remaining of Initial (n = 1), 30 min” value (male, Sprague-Dawley, rat) was 75% and the “% Remaining of Initial (n = 1), 60 min” value (male, Sprague-Dawley, rat) was 67%. It also gave a half-life at 1 μM (male, Sprague-Dawley, rat) greater than 1 h and a half-life at 1 μM (male, Sprague-Dawley, rat, calculated half-life in parentheses) of 1.52 h.
